These are literature values, as cited in patent US20110256218A1, “CONTROLLED RELEASE COMPOSITIONS COMPRISING MECLIZINE OR RELATED PIPERAZINE DERIVATIVES” (EURAND, INC., priority 2010, published 2011).

Structures can show the parent of a compound that is named as a salt.

For data set [1] the following is noted: weakly basic chemical entity.
The conditions of data set [2]: in humans.
The conditions of data set [3]: in vivo.
The conditions of data set [4]: patients taking meclizine.

In the case of `Cc1cccc(CN2CCN(C(c3ccccc3)c3ccc(Cl)cc3)CC2)c1` (stereo not drawn) [Meclizine 2HCl.H2O, 1-(p-chloro-α-phenylbenzyl)-4-(m-methylbenzyl)piperazine dihydrochloride monohydrate], the pKa in data set [1] was 6.2.
Consider `Cc1cccc(CN2CCN(C(c3ccccc3)c3ccc(Cl)cc3)CC2)c1` (centres unmarked) [meclizine], for which the plasma half-life entry in data set [2] was “about 6 hours”. Besides, in data set [3], the “effects lasting (duration of action)” value is 8 to 24 h and the onset of action entry is reported as “about 1 hour”. The “sedation reported (common side effect)” value in data set [4] is on record as 20%-30%.

Usually pKa stands for the pH at which an ionisable group is half protonated.
